Columns and labels:
[1] = target: T1, purified LasB protein from P. aeruginosa (Pseudomonas aeruginosa, UniProt P14756); assay: Fluorometric assay to determine Ki (Assay 1); format: biochemical; details: Ki (μM) Assay 1, purified LasB, substrate Abz-Ala-Gly-Leu-Ala-p-Nitro-Benzyl-Amide 250 μM, Ki calculated from IC50; inhibitor 0.006 to 200 μM
T1 construct: purchased Merck or Charles River Laboratories
Method: (§1) Experiments were therefore conducted (1) to measure the potency of inhibition of compounds of the invention against purified Pseudomonas aeruginosa LasB enzyme and also experiments were conducted (2) to measure the ability of compounds of the invention to inhibit LasB-catalysed elastin degradation. The first assay uses a commercial fluorescent synthetic peptide and purified LasB enzyme. The LasB hydrolysis kinetics are measured allowing the determination of the IC50 and Ki of the inhibitors; the second is a more physiological assay using dialysed Pseudomonas aeruginosa supernatant as source of enzyme, plus its natural substrate Elastin. It is an “end point assay” that determines the percentage of LasB inhibition by each compound for one particular time point and inhibitor concentration. Technical details are described below:
This assay uses commercially available substrate (Abz-Ala-Gly-Leu-Ala-p-Nitro-Benzyl-Amide (Ex: 340 nm, Em: 415 nm) from Peptide International) and purified LasB protein from P. aeruginosa (provided by Merck or Charles River Laboratories). It is performed to determine LasB elastase activity and assess compound inhibition in 96-well plate format. Some compounds of Formula (I) were assessed using the method of Assay 1 (described below). Other compounds of Formula (I) were assessed using the alternative but equivalent method of Assay 2 (described below).
Method: 10 to 140 ng/ml purified LasB is incubated with 250 μM Abz-Ala-Gly-Leu-Ala-p-Nitro-Benzyl-Amide in 50 mM Tris-HCl pH 7.4, 2.5 mM CaCl2), 0.01% of Triton X100 at 37° C. LasB activity (corresponding to fluorescence emission induced by substrate hydrolysis) is measured over 30 min at 37° C. with a fluorescence plate reader such as the Perkin Elmer Envision or similar. Different range of inhibitor concentrations are routinely assessed depending of inhibitor potency from 0.006 to 200 μM (Assay 1; 2-fold dilutions series) or from 0.0016 to 200 μM (Assay 2; 2-fold dilutions series) in order to determine IC50.
The equation used to calculate the Ki from IC50 is: Ki=IC50/(1+([S]/Km)) where [S]=250 μM and Km=214 μM.

[2] = target: T2, LasB elastase activity in dialysed supernatant from P. aeruginosa strain PA01 (Pseudomonas aeruginosa, UniProt P14756); assay: Elastin Congo Red assay to determine % inhibition (Assay 1); format: biochemical; details: for inhibition at 50 µM: read-out: Elastin hydrolysis % inhibition @ 50/25 μM inhibitor concentration Assay 1
T2 construct: uses as source of enzyme dialysed supernatant from P. aeruginosa; endogenous in cells; host or cells: P. aeruginosa strain PA01 culture supernatant, filtered and dialysed
Method: as §1
The Elastin assay uses as source of enzyme dialysed supernatant from P. aeruginosa and the elastin congo red as substrate. The natural LasB substrate, elastin, is complexed with the congo red dye (Elastin Congo Red, ECR). The elastolysis activity from the culture supernatant will degrade elastin and release the congo red dye into the supernatant. This red dye release can be measured with a spectrophotometer. Some compounds of Formula (I) were assessed using the method of Assay 1 (described below). Other compounds of Formula (I) were assessed using the alternative but equivalent method of Assay 2 (described below).
Method (Assay 1): To determine LasB elastase activity and assess compound inhibition, an overnight culture of P. aeruginosa strain PA01 is diluted thousand-fold in LB medium. This diluted solution is incubated during 19 hours in a shaking incubator. Culture supernatants are recovered by centrifugation and filtrated through a […] filter. These supernatants are dialysed (filtration molecules <20 kDa) into a 50 mM Tris pH 7.4, 2.5 mM CaCl2 solution at 4° C. under agitation for 24 hours. Supernatant dialysed is then mixed volume/volume with the ECR suspension (20 mg/mL of ECR in 100 mM Tris buffer supplemented with 1 mM CaCl2) supplemented with TritonX 100 (final concentration of 0.01%) in presence of different concentrations of compound (routinely 50 and 25 μM). The mixed reaction is then incubated for 24 hours in a 37° shaking incubator. As a negative control, the mixed supernatant is replaced by Tris solution (50 mM Tris pH 7.4, 2.5 mM CaCl2). The reaction supernatant is recovered by centrifugation and the release of congo red is measured by its absorbance at OD520. Percentage inhibition is determined using the following equation: (OD520 value of DMSO SN−OD520 value of LB)−(OD520 value of Compound SN−OD520 value of LB)/(OD520 value of DMSO SN−OD520 value of LB)×100.

T1 sequence (P14756 198-498): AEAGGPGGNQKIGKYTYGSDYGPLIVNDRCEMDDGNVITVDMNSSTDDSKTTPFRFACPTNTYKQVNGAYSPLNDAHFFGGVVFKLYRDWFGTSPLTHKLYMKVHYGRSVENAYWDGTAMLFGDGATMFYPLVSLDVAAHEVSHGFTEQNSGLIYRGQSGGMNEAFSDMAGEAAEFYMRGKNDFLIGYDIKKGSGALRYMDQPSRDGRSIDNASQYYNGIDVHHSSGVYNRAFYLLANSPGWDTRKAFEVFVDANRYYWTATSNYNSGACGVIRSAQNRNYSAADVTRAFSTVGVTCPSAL
T2 sequence (P14756 198-498): as above

| Compound | Ki [1] | inhibition at 50 µM [2] | Elastin hydrolysis % inhibition @ 50/25 μM inhibitor concentration Assay 1 ([2]; 50 μM inhibitor concentration, elastin congo red, 24 hours, OD520) |
| --- | --- | --- | --- |
| NC1CC(Oc2ccc3nc(CNC(=O)C4(CC(=O)O)Cc5ccccc5C4)sc3c2)C1 (mixture of isomers) [Example 78, 2-[2-[[6-(3-aminocyclobutoxy)-1,3-benzothiazol-2-yl]methylcarbamoyl]indan-2-yl]acetic acid] | 0.3 to 2 µM | – | – |
| C[N+](C)(C)CCOc1ccc2sc(CNC(=O)C3(CC(=O)[O-])Cc4ccccc4C3)nc2c1 [Example 113, 2-[2-[[5-[2-(trimethylammonio)ethoxy]-1,3-benzothiazol-2-yl]methylcarbamoyl]indan-2-yl]acetate] | 0.3 to 2 µM | > 60% | – |
| O=C(O)CC1(C(=O)N[C@H](CO)Cc2c[nH]c3ccccc23)Cc2ccccc2C1 [Example 33, (2-{[(2S)-1-hydroxy-3-(1H-indol-3-yl)propan-2-yl]carbamoyl}-1,3-dihydroinden-2-yl)acetic acid] | 0.3 to 2 µM | 30 to 60% | – |
| NCCC1CN(c2ccc3nc(CNC(=O)C4(CC(=O)O)Cc5ccccc5C4)sc3c2)C1 [Example 70, 2-[2-[[6-[3-(2-aminoethyl)azetidin-1-yl]-1,3-benzothiazol-2-yl]methylcarbamoyl]indan-2-yl]acetic acid] | < 0.3 µM | > 60% | – |
| O=C(O)CC1(C(=O)NCc2nc3cc(Cl)ccc3[nH]2)Cc2ccccc2C1 [Example 1, 2-(2-{[(5-Chloro-1H-1,3-benzodiazol-2-yl)methyl]carbamoyl}-2,3-dihydro-1H-inden-2-yl)acetic acid] | 0.3 to 2 µM | 30 to 60% | – |
| COc1cccc2sc(CNC(=O)C3(CC(=O)O)Cc4ccccc4C3)nc12 [Example 62, 2-(2-(((4-methoxybenzo[d]thiazol-2-yl)methyl)carbamoyl)-2,3-dihydro-1H-inden-2-yl)acetic acid] | < 0.3 µM | > 60% | – |
| CN(C)CCNc1ccc2nc(CNC(=O)C3(CC(=O)O)Cc4ccccc4C3)sc2c1 [Example 105, 2-[2-[[6-[2-(dimethylamino)ethylamino]-1,3-benzothiazol-2-yl]methylcarbamoyl]indan-2-yl]acetic acid] | 0.3 to 2 µM | 30 to 60% | – |
| N[C@H]1CCN(c2ccc3nc(CNC(=O)C4(CC(=O)O)Cc5ccccc5C4)sc3c2)C1 [Example 101, 2-[2-[[6-[(3 S)-3-aminopyrrolidin-1-yl]-1,3-benzothiazol-2-yl]methylcarbamoyl]indan-2-yl]acetic acid] | 0.3 to 2 µM | > 60% | – |
| CC(NC(=O)C1(CC(=O)O)Cc2ccccc2C1)c1cc2ccccc2o1 (single isomer, unassigned) [Example 58, 2-[2-[[(1R*)-1-(benzofuran-2-yl)ethyl]carbamoyl]indan-2-yl]acetic acid] | 2 to 10 µM | 30 to 60% | – |
| O=C(O)CC1(C(=O)NCc2nc3c(Br)cccc3s2)Cc2ccccc2C1 [Example 61, 2-(2-(((4-bromobenzo[d]thiazol-2-yl)methyl)carbamoyl)-2,3-dihydro-1H-inden-2-yl)acetic acid] | < 0.3 µM | > 60% | – |
| N[C@@H]1CCN(c2ccc3sc(CNC(=O)C4(CC(=O)O)Cc5ccccc5C4)nc3c2)C1 [Example 104, 2-[2-[[5-[(3R)-3-aminopyrrolidin-1-yl]-1,3-benzothiazol-2-yl]methylcarbamoyl]indan-2-yl]acetic acid] | 0.3 to 2 µM | > 60% | – |
| CC(NC(=O)C1(CC(=O)O)Cc2ccccc2C1)c1cc2ccccc2o1 (single isomer, unassigned) [Example 59, 2-[2-[[(1S*)-1-(benzofuran-2-yl)ethyl]carbamoyl]indan-2-yl]acetic acid] | 0.3 to 2 µM | – | B (30 to 60% inhibition) |
| O=C(O)CC1(C(=O)NCCc2cc3ccccc3s2)Cc2ccccc2C1 [Example 30, 2-[2-[2-(benzothiophen-2-yl)ethylcarbamoyl]indan-2-yl]acetic acid] | 2 to 10 µM | 15 to 30% | – |
| NCCc1ccc2sc(CNC(=O)C3(CC(=O)O)Cc4ccccc4C3)nc2c1 [Example 83, 2-[2-[[5-(2-aminoethyl)-1,3-benzothiazol-2-yl]methylcarbamoyl]indan-2-yl]acetic acid] | 0.3 to 2 µM | – | – |
| C[N+](C)(C)CCc1ccc2sc(CNC(=O)C3(CC(=O)[O-])Cc4ccccc4C3)nc2c1 [Example 98, 2-[2-[[5-[2-(trimethylammonio)ethyl]-1,3-benzothiazol-2-yl]methylcarbamoyl]indan-2-yl]acetate] | 0.3 to 2 µM | – | – |
| CN(C)Cc1ccc2nc(CNC(=O)C3(CC(=O)O)Cc4ccccc4C3)sc2c1 [Example 81, 2-[2-[[6-[(dimethylamino)methyl]-1,3-benzothiazol-2-yl]methylcarbamoyl]indan-2-yl]acetic acid] | 2 to 10 µM | – | – |
| C[N+](C)(C)Cc1ccc2sc(CNC(=O)C3(CC(=O)[O-])Cc4ccccc4C3)nc2c1 [Example 85, 2-[2-[[5-[(trimethylammonio)methyl]-1,3-benzothiazol-2-yl]methylcarbamoyl]indan-2-yl]acetate] | 0.3 to 2 µM | – | – |
| O=C(O)CC1(C(=O)NCCc2nc3ccccc3o2)Cc2ccccc2C1 [Example 31, 2-[2-[2-(1,3-benzoxazol-2-yl)ethylcarbamoyl]indan-2-yl]acetic acid] | 2 to 10 µM | – | – |
| CC(C)(N)c1nnc([C@H](Cc2c[nH]c3ccccc23)NC(=O)C2(CC(=O)O)Cc3ccccc3C2)o1 [Example 119, (S)-2-(2-((1-(5-(2-aminopropan-2-yl)-1,3,4-oxadiazol-2-yl)-2-(1H-indol-3-yl)ethyl)carbamoyl)-2,3-dihydro-1H-inden-2-yl)acetic acid] | 0.3 to 2 µM | – | – |
| CN(C)CCc1ccc2sc(CNC(=O)C3(CC(=O)O)Cc4ccccc4C3)nc2c1 [Example 97, 2-[2-[[5-[2-(dimethylamino)ethyl]-1,3-benzothiazol-2-yl]methylcarbamoyl]indan-2-yl]acetic acid] | 0.3 to 2 µM | – | – |
| C[N+](C)(C)CCNc1ccc2sc(CNC(=O)C3(CC(=O)[O-])Cc4ccccc4C3)nc2c1 [Example 77, 2-[2-[[5-[2-(trimethylammonio)ethylamino]-1,3-benzothiazol-2-yl]methylcarbamoyl]indan-2-yl]acetate] | 0.3 to 2 µM | – | – |
| O=C(O)CC1(C(=O)NCc2nc3ccccc3s2)Cc2cc(Cl)c(Cl)cc2C1 [Example 121, 2-(2-((benzo[d]thiazol-2-ylmethyl)carbamoyl)-5,6-dichloro-2,3-dihydro-1H-inden-2-yl)acetic acid] | 0.3 to 2 µM | – | – |
| CN(C)C1CC(Oc2ccc3nc(CNC(=O)C4(CC(=O)O)Cc5ccccc5C4)sc3c2)C1 (stereo not shown) [Example 79, 2-[2-[[6-[3-(dimethylamino)cyclobutoxy]-1,3-benzothiazol-2-yl]methylcarbamoyl]indan-2-yl]acetic acid] | 0.3 to 2 µM | – | – |
| C[N+](C)(C)Cc1ccc2nc(CNC(=O)C3(CC(=O)[O-])Cc4ccccc4C3)sc2c1 [Example 82, 2-[2-[[6-[(trimethylammonio)methyl]-1,3-benzothiazol-2-yl]methylcarbamoyl]indan-2-yl]acetate] | 2 to 10 µM | – | – |
| CN(C)Cc1ccc2sc(CNC(=O)C3(CC(=O)O)Cc4ccccc4C3)nc2c1 [Example 84, 2-[2-[[5-[(dimethylamino)methyl]-1,3-benzothiazol-2-yl]methylcarbamoyl]indan-2-yl]acetic acid] | 0.3 to 2 µM | – | – |

Source: patent US11000511B2, “Chemical compounds as antibiotics” (priority 2017, dated 2021)
